Test results: patent publication US20110251379A1, “COMPOUNDS USEFUL FOR TREATING NEURODEGENERATIVE DISORDERS” (Satori Pharmaceuticals, Inc., priority 2010, published 2011)

System: amyloid-beta (1-42) peptide
Assay: ELISA assay of amyloid-beta (1-42) in conditioned media of 2B7 cells
Type: cell-based
Conditions: for IC50: Aβ-42, 2B7 cells, 5 hours, read-out: IC50 range
Procedure, shortened: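 2B7 cells were treated with compounds for 5 hours at 37° C in media with 1% DMSO. Conditioned media, diluted 1:2 in blocking buffer, went into a sandwich ELISA with 6E10 capture and an HRP-labelled detection antibody, read by TMB at 450 nm. Values came from an Aβ peptide standard curve.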

CCC(=O)OC(C1CC(C)C2C(O1)C(O)C1(C)C3CCC4C(C)(C)C(OC5OCC(O)C(O)C5O)CCC45CC35CCC21C)C(C)(C)O (stereo not drawn)
IC50: ≤ 1 µM

CNCC1CC(C)C2C(O1)C(O)C1(C)C3CCC4C(C)(C)C(OC5OCC(O)C(O)C5O)CCC45CC35CCC21C (stereo not drawn)
IC50: > 10 µM

CC(=O)OC(C1CC(C)C2C(O1)C(O)C1(C)C3CCC4C(C)(CCC(O)C4(C)C)C3=CCC21C)C(C)(C)O (stereo not drawn)
IC50: ≤ 1 µM

CC(=O)OC(C1CC(C)C2C(O1)C(OC(N)=O)C1(C)C3CCC4C(C)(C)C(OC(N)=O)CCC45CC35CCC21C)C(C)(C)O (stereo not drawn)
IC50: > 10 µM

CC(=O)OC(C1CC(C)C2C(O1)C(OC(=O)C(F)(F)F)C1(C)C3CCC4C(C)(C)C(OC(=O)C(F)(F)F)CCC45CC35CCC21C)C(C)(C)O (stereo not drawn)
IC50: ≤ 1 µM

CC(=O)OC(C1CC(C)C2C(O1)C(OC(=O)C(F)(F)F)C1(C)C3CCC4C(C)(C)C(O)CCC45CC35CCC21C)C(C)(C)O (stereo not drawn)
IC50: ≤ 1 µM

CC(=O)OC(C1CC(C)C2C(O1)C(OC(N)=O)C1(C)C3CCC4C(C)(C)C(O)CCC45CC35CCC21C)C(C)(C)O (stereo not drawn)
IC50: > 10 µM

CC(=O)OC(C1CC(C)C2C(O1)C(O)C1(C)C3CCC4C(C)(C)C(OC(=O)C5CCN5)CCC45CC35CCC21C)C(C)(C)O (stereo not drawn)
IC50: ≤ 1 µM

CCN1CCOC(OC2CCC34CC35CCC3(C)C6C(C)CC(C(OC(C)=O)C(C)(C)O)OC6C(OC(C)=O)C3(C)C5CCC4C2(C)C)C1 (stereo not drawn)
IC50: > 10 µM

CC1CC(CNCc2ccccc2)OC2C1C1(C)CCC34CC35CCC(O)C(C)(C)C5CCC4C1(C)C2O (stereo not drawn)
IC50: > 10 µM

CC1CC(CNC(C)(C)C)OC2C1C1(C)CCC34CC35CCC(O)C(C)(C)C5CCC4C1(C)C2O (stereo not drawn)
IC50: > 10 µM

CC1CC(CN(C)C)OC2C1C1(C)CCC34CC35CCC(O)C(C)(C)C5CCC4C1(C)C2O (stereo not drawn)
IC50: > 10 µM

CC1CC(CNCC(F)(F)F)OC2C1C1(C)CCC34CC35CCC(O)C(C)(C)C5CCC4C1(C)C2O (stereo not drawn)
IC50: > 10 µM

C=C(C)C(OC(C)=O)C1CC(C)C2C(O1)C(O)C1(C)C3CCC4C(C)(C)C(OC5CN(CC(=O)N(C)C)CCO5)CCC45CC35CCC21C (stereo not drawn)
IC50: 1 to 10 µM

CC(=O)N(CC1CC(C)C2C(O1)C(O)C1(C)C3CCC4C(C)(C)C(O)CCC45CC35CCC21C)C(C)(C)C (stereo not drawn)
IC50: < 10 µM

CC(=O)N(C)CC1CC(C)C2C(O1)C(O)C1(C)C3CCC4C(C)(C)C(O)CCC45CC35CCC21C (stereo not drawn)
IC50: > 10 µM

CC(=O)N(CC1CC(C)C2C(O1)C(O)C1(C)C3CCC4C(C)(C)C(O)CCC45CC35CCC21C)CC(F)(F)F (stereo not drawn)
IC50: > 10 µM

COC(=O)C1CC(C)C2C(O1)C(O)C1(C)C3CCC4C(C)(C)C(O)CCC45CC35CCC21C (stereo not drawn)
IC50: > 10 µM

CC1CC(C(=O)NC2CCC2)OC2C1C1(C)CCC34CC35CCC(O)C(C)(C)C5CCC4C1(C)C2O (stereo not drawn)
IC50: > 10 µM

CC1CC(C(=O)NCc2ccccc2)OC2C1C1(C)CCC34CC35CCC(O)C(C)(C)C5CCC4C1(C)C2O (stereo not drawn)
IC50: > 10 µM

CC1CC(CN)OC2C1C1(C)CCC34CC35CCC(O)C(C)(C)C5CCC4C1(C)C2O (stereo not drawn)
IC50: > 10 µM

CC(=O)NCC1CC(C)C2C(O1)C(O)C1(C)C3CCC4C(C)(C)C(O)CCC45CC35CCC21C (stereo not drawn)
IC50: > 10 µM

CC1CC(CNC(C)(C)C)OC2C1C1(C)CCC34CC35CCC(OS(C)(=O)=O)C(C)(C)C5CCC4C1(C)C2O (stereo not drawn)
IC50: > 10 µM

CCC(=O)N(CC1CC(C)C2C(O1)C(O)C1(C)C3CCC4C(C)(C)C(O)CCC45CC35CCC21C)C(C)(C)C (stereo not drawn)
IC50: > 10 µM

CC1CC(C(=O)N2CCC2)OC2C1C1(C)CCC34CC35CCC(O)C(C)(C)C5CCC4C1(C)C2O (stereo not drawn)
IC50: > 10 µM

CC1CC(C(=O)N2CCOCC2)OC2C1C1(C)CCC34CC35CCC(O)C(C)(C)C5CCC4C1(C)C2O (stereo not drawn)
IC50: > 10 µM

CC1CC(CNS(C)(=O)=O)OC2C1C1(C)CCC34CC35CCC(O)C(C)(C)C5CCC4C1(C)C2O (stereo not drawn)
IC50: > 10 µM

CC(=O)N(CC1CC(C)C2C(O1)C(O)C1(C)C3CCC4C(C)(C)C(O)CCC45CC35CCC21C)C1COC1 (stereo not drawn)
IC50: > 10 µM

CC1CC(CN(C2COC2)S(C)(=O)=O)OC2C1C1(C)CCC34CC35CCC(O)C(C)(C)C5CCC4C1(C)C2O (stereo not drawn)
IC50: > 10 µM

CC(=O)N(CC1CC1)CC1CC(C)C2C(O1)C(O)C1(C)C3CCC4C(C)(C)C(O)CCC45CC35CCC21C (stereo not drawn)
IC50: > 10 µM

CC1CC(CN(CC2CC2)S(C)(=O)=O)OC2C1C1(C)CCC34CC35CCC(O)C(C)(C)C5CCC4C1(C)C2O (stereo not drawn)
IC50: > 10 µM

CC(=O)N(CC1CC(C)C2C(O1)C(O)C1(C)C3CCC4C(C)(C)C(O)CCC45CC35CCC21C)CC(C)(C)O (stereo not drawn)
IC50: > 10 µM

CC(=O)N(CC1CC(C)C2C(O1)C(O)C1(C)C3CCC4C(C)(C)C(O)CCC45CC35CCC21C)C1CCC1 (stereo not drawn)
IC50: > 10 µM

CC1CC(CN2CCCC2=O)OC2C1C1(C)CCC34CC35CCC(O)C(C)(C)C5CCC4C1(C)C2O (stereo not drawn)
IC50: > 10 µM

CC1CC(CN2C(=O)OCC2(C)C)OC2C1C1(C)CCC34CC35CCC(O)C(C)(C)C5CCC4C1(C)C2O (stereo not drawn)
IC50: > 10 µM

CC(=O)N(CC1CC(C)C2C(O1)C(O)C1(C)C3CCC4C(C)(C)C(OC(=O)c5cccnc5)CCC45CC35CCC21C)C1CCC1 (stereo not drawn)
IC50: > 10 µM

CC(=O)N(CC1CC(C)C2C(O1)C(O)C1(C)C3CCC4C(C)(C)C(OC(=O)c5cccnc5)CCC45CC35CCC21C)C(C)(C)C (stereo not drawn)
IC50: > 10 µM

CC1CC(CN(C)C(=O)C(C)(C)C)OC2C1C1(C)CCC34CC35CCC(O)C(C)(C)C5CCC4C1(C)C2O (stereo not drawn)
IC50: > 10 µM

CC1CC(CN(C)C(=O)C(C)(C)C)OC2C1C1(C)CCC34CC35CCC(OC(=O)c3cccnc3)C(C)(C)C5CCC4C1(C)C2O (stereo not drawn)
IC50: > 10 µM

CC(=O)N(Cc1ccccc1)CC1CC(C)C2C(O1)C(O)C1(C)C3CCC4C(C)(C)C(OC(=O)c5cccnc5)CCC45CC35CCC21C (stereo not drawn)
IC50: 1 to 10 µM

CC(=O)N(CC1CC(C)C2C(O1)C(O)C1(C)C3CCC4C(C)(C)C(O)CCC45CC35CCC21C)CC(C)(C)C (stereo not drawn)
IC50: 1 to 10 µM

COC(=O)N(CC1CC(C)C2C(O1)C(O)C1(C)C3CCC4C(C)(C)C(O)CCC45CC35CCC21C)C(C)(C)C (stereo not drawn)
IC50: > 10 µM

CC(C)NC(=O)N(Cc1ccccc1)CC1CC(C)C2C(O1)C(O)C1(C)C3CCC4C(C)(C)C(O)CCC45CC35CCC21C (stereo not drawn)
IC50: > 10 µM

CC(=O)N(Cc1ccccc1F)CC1CC(C)C2C(O1)C(O)C1(C)C3CCC4C(C)(C)C(O)CCC45CC35CCC21C (stereo not drawn)
IC50: 1 to 10 µM

CC(=O)N(Cc1cccc(F)c1)CC1CC(C)C2C(O1)C(O)C1(C)C3CCC4C(C)(C)C(O)CCC45CC35CCC21C (stereo not drawn)
IC50: ≤ 1 µM

CC(=O)N(Cc1ccc(F)cc1)CC1CC(C)C2C(O1)C(O)C1(C)C3CCC4C(C)(C)C(O)CCC45CC35CCC21C (stereo not drawn)
IC50: 1 to 10 µM

CC(=O)N(Cc1cccnc1)CC1CC(C)C2C(O1)C(O)C1(C)C3CCC4C(C)(C)C(O)CCC45CC35CCC21C (stereo not drawn)
IC50: > 10 µM

CC(=O)N(Cc1ccncc1)CC1CC(C)C2C(O1)C(O)C1(C)C3CCC4C(C)(C)C(O)CCC45CC35CCC21C (stereo not drawn)
IC50: > 10 µM

CC(=O)N(Cc1cc(F)cc(F)c1)CC1CC(C)C2C(O1)C(O)C1(C)C3CCC4C(C)(C)C(OC(=O)c5cccnc5)CCC45CC35CCC21C (stereo not drawn)
IC50: 1 to 10 µM

CC(=O)N(Cc1cc(F)c(F)c(F)c1)CC1CC(C)C2C(O1)C(O)C1(C)C3CCC4C(C)(C)C(O)CCC45CC35CCC21C (stereo not drawn)
IC50: 1 to 10 µM

CC(=O)N(Cc1cc(F)cc(F)c1)CC1CC(C)C2C(O1)C(O)C1(C)C3CCC4C(C)(C)C(OC(=O)c5ccccn5)CCC45CC35CCC21C (stereo not drawn)
IC50: 1 to 10 µM

CC1CC(CN(Cc2ccccc2)C(=O)N(C)C)OC2C1C1(C)CCC34CC35CCC(O)C(C)(C)C5CCC4C1(C)C2O (stereo not drawn)
IC50: > 10 µM

CC(=O)N(CC1CC(C)C2C(O1)C(O)C1(C)C3CCC4C(C)(C)C(O)CCC45CC35CCC21C)C(C)c1ccc(F)cc1 (stereo not drawn)
IC50: 1 to 10 µM

CC(=O)N(Cc1cc(F)cc(F)c1)CC1CC(C)C2C(O1)C(O)C1(C)C3CCC4C(C)(C)C(OC(=O)c5ccncc5)CCC45CC35CCC21C (stereo not drawn)
IC50: > 10 µM

CC(=O)N(Cc1cc(F)cc(F)c1)CC1CC(C)C2C(O1)C(O)C1(C)C3CCC4C(C)(C)C(OC(=O)C5CN(C(=O)OC(C)(C)C)C5)CCC45CC35CCC21C (stereo not drawn)
IC50: > 10 µM

CC1CC(C(OC(=O)C(C)(C)C)C(C)(C)O)OC2C1C1(C)CCC34CC35CCC(O)C(C)(C)C5CCC4C1(C)C2O (stereo not drawn)
IC50: > 1 µM

CC1CC(C2OC(=O)OC2(C)C)OC2C1C1(C)CCC34CC35CCC(O)C(C)(C)C5CCC4C1(C)C2O (stereo not drawn)
IC50: > 10 µM

CC(=O)N(Cc1cc(F)cc(F)c1)CC1CC(C)C2C(O1)C(O)C1(C)C3CCC4C(C)(C)C(OC(=O)CN5CCOCC5)CCC45CC35CCC21C (stereo not drawn)
IC50: > 10 µM

CC(=O)N(Cc1cc(F)cc(F)c1)CC1CC(C)C2C(O1)C(O)C1(C)C3CCC4C(C)(C)C(OC(=O)Cc5cccnc5)CCC45CC35CCC21C (stereo not drawn)
IC50: > 10 µM

CC(=O)OC(C1CC(C)C2C(O1)C(O)C1(C)C3CCC4C(C)(C)C(OC(=O)C5(C)COC5)CCC45CC35CCC21C)C(C)(C)O (stereo not drawn)
IC50: ≤ 1 µM

CC1CC(C(O)C(C)(C)O)OC2C1C1(C)CCC34CC35CCC(OC3CN(C(=O)c6ccc(F)cc6)CCO3)C(C)(C)C5CCC4C1(C)C2O (stereo not drawn)
IC50: 1 to 10 µM

CC1CC(C(O)C(C)(C)O)OC2C1C1(C)CCC34CC35CCC(OC3CN(C(=O)c6ccccn6)CCO3)C(C)(C)C5CCC4C1(C)C2O (stereo not drawn)
IC50: > 10 µM

CC1CC(C(O)C(C)(C)O)OC2C1C1(C)CCC34CC35CCC(OC3CN(C(=O)CN(C)C)CCO3)C(C)(C)C5CCC4C1(C)C2O (stereo not drawn)
IC50: 1 to 10 µM

CC1CC(C(O)C(C)(C)O)OC2C1C1(C)CCC34CC35CCC(OC3CN(C(=O)CN6CCCC6)CCO3)C(C)(C)C5CCC4C1(C)C2O (stereo not drawn)
IC50: 1 to 10 µM

CC1CC(C(O)C(C)(C)O)OC2C1C1(C)CCC34CC35CCC(OC3CN(C(=O)C6CCN(C)CC6)CCO3)C(C)(C)C5CCC4C1(C)C2O (stereo not drawn)
IC50: 1 to 10 µM

CC1CC(C(O)C(C)(C)O)OC2C1C1(C)CCC34CC35CCC(OC3CN(C(=O)CC6CCCCC6)CCO3)C(C)(C)C5CCC4C1(C)C2O (stereo not drawn)
IC50: ≤ 1 µM

CC1CC(C(O)C(C)(C)O)OC2C1C1(C)CCC34CC35CCC(OC3CN(C(=O)C6CCC6)CCO3)C(C)(C)C5CCC4C1(C)C2O (stereo not drawn)
IC50: < 10 µM

CC1CC(CCC(=O)O)OC2C1C1(C)CCC34CC35CCC(OC3CN(C(=O)CC6CC6)CCO3)C(C)(C)C5CCC4C1(C)C2O (stereo not drawn)
IC50: 1 to 10 µM

CC1CC(C(O)C(C)(C)O)OC2C1C1(C)CCC34CC35CCC(OC3CN(C6CCOC6)CCO3)C(C)(C)C5CCC4C1(C)C2O (single isomer, unassigned) [drawing 1105]
% Inhibition (range) (Aβ-42, 20 umol/L): F (% inhibition of <25%)
